Measurements: the supplement of paper PMC4862054

Experiments:
Details in all cases: incubation time: 72 h
[1] = tested on: Hs578T; experiment: normalised response (% of control), CellTox Green; higher = less cell death (100 = DMSO, 0 = benzethonium chloride kill control)
In short: (§1)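 In 384-well plates holding compound at 5 concentrations in 10-fold steps over a 10,000-fold range specific to each compound, breast cancer cell lines were seeded as 20 µl suspension and incubated 72 h. CellTox Green fluorescence was measured at 485/520 nm, after which CellTiter-Glo luminescence was measured following 10 min at room temperature. Plate signals were normalised to 0.1 % DMSO (100) and a positive kill control (0), and each value is the normalised signal at a single concentration.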

[2] = tested on: CAL-148; experiment: as above
In short: as §1

[3] = tested on: CAL-120; experiment: as above
In short: as §1

[4] = tested on: MCF-10A; experiment: as above
In short: as §1

[5] = tested on: CAL-51; experiment: as above
In short: as §1

[6] = tested on: HDQ-P1; experiment: as above
In short: as §1

[7] = tested on: MFM-223; experiment: as above
In short: as §1

[8] = tested on: MDA-MB-231; experiment: as above
In short: as §1

[9] = tested on: MDA-MB-453; experiment: as above
In short: as §1

[10] = tested on: BT-549; experiment: as above
In short: as §1

[11] = tested on: HCC1599; experiment: as above
In short: as §1

[12] = tested on: CAL-85-1; experiment: as above
In short: as §1

[13] = tested on: MDA-MB-436; experiment: as above
In short: as §1

[14] = tested on: BT-474; experiment: as above
In short: as §1

[15] = tested on: HCC1143; experiment: as above
In short: as §1

[16] = tested on: DU-4475; experiment: as above
In short: as §1

[17] = tested on: Hs578T; experiment: normalised response (% of control), CellTiter-Glo; higher = more viable cells (100 = DMSO, 0 = benzethonium chloride kill control)
Method: (§2)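 DSRT, 72 h incubation, CellTox Green / CellTiter-Glo readout. Signal is normalised to DMSO and benzethonium chloride controls. Value is the normalised response at dose 3.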

[18] = tested on: CAL-148; experiment: as above
Method: as §2

[19] = tested on: CAL-120; experiment: as above
Method: as §2

[20] = tested on: MCF-10A; experiment: as above
Method: as §2

[21] = tested on: CAL-51; experiment: as above
Method: as §2

[22] = tested on: HDQ-P1; experiment: as above
Method: as §2

[23] = tested on: MFM-223; experiment: as above
Method: as §2

[24] = tested on: HCC1937; experiment: as above
Method: as §2

[25] = tested on: MDA-MB-231; experiment: as above
Method: as §2

[26] = tested on: SK-BR-3; experiment: as above
Method: as §2

[27] = tested on: MDA-MB-453; experiment: as above
Method: as §2

[28] = tested on: BT-549; experiment: as above
Method: as §2

[29] = tested on: HCC1599; experiment: as above
Method: as §2

[30] = tested on: CAL-85-1; experiment: as above
Method: as §2

[31] = tested on: MDA-MB-436; experiment: as above
Method: as §2

[32] = tested on: BT-474; experiment: as above
Method: as §2

[33] = tested on: HCC1143; experiment: as above
Method: as §2

[34] = tested on: DU-4475; experiment: as above
Method: as §2

[35] = tested on: MDA-MB-468; experiment: as above
Method: as §2

[36] = tested on: HCC1937; experiment: normalised response (% of control), CellTox Green; higher = less cell death (100 = DMSO, 0 = benzethonium chloride kill control)
In short: as §1

[37] = tested on: MDA-MB-468; experiment: as above
In short: as §1

SMILES | normalised response [1] | normalised response [2] | normalised response [3] | normalised response [4] | normalised response [5] | normalised response [6] | normalised response [7] | normalised response [8] | normalised response [9] | normalised response [10] | normalised response [11] | normalised response [12] | normalised response [13] | normalised response [14] | normalised response [15] | normalised response [16] | normalised response [17] | normalised response [18] | normalised response [19] | normalised response [20] | normalised response [21] | normalised response [22] | normalised response [23] | normalised response [24] | normalised response [25] | normalised response [26] | normalised response [27] | normalised response [28] | normalised response [29] | normalised response [30] | normalised response [31] | normalised response [32] | normalised response [33] | normalised response [34] | normalised response [35] | normalised response [36] | normalised response [37]
CNC(=O)c1cccc(-c2ccc3c(N4CCOC[C@@H]4C)nc(N4CCOC[C@@H]4C)nc3n2)c1 [AZD2014] (100 nM) | 107% | 83.9% | 101% | 51.3% | 49.6% | 106% | 103% | 121% | 98.7% | 101% | 93% | 104% | 118% | 102% | 105% | 103% | 93.6% | 85.6% | 79.4% | 97.3% | 69.4% | 70.5% | 75.1% | 80.8% | 86.9% | 64.7% | 80.8% | 73.9% | 119% | 87.6% | 82% | 87.1% | 92.3% | 97.1% | 94.7% |  | 
CC(C)C[C@@H](C(=O)N[C@H](C(=O)OC1CCCC1)c1ccccc1)[C@H](O)C(=O)NO [Tosedostat] (100 nM) | 81.3% | 81.6% | 78.6% | 76% | 53% | 76.4% | 84% | 30.6% | 102% | 72.1% | 104% | 62.7% | 68.7% | 102% | 86.2% | 102% | 91.2% | 94.2% | 79.6% | 101% | 77.9% | 90.3% | 90.7% | 77.5% | 70.2% | 82.8% | 64.5% | 70% | 85.1% | 74.4% | 89% | 59.1% | 83.5% | 91.8% | 60.2% | 91% | -23.4%
O=C(/C=C/c1cccc(S(=O)(=O)Nc2ccccc2)c1)NO [Belinostat] (100 nM) | 103% | 101% | 99.2% |  | 83.8% | 104% | 84.1% | 76.3% | 100% | 100% | 104% | 94.8% | 93.2% | 96.7% | 95.4% | 99.4% | 95% | 79.8% | 87.5% | 81.3% | 63.4% | 83.7% | 85.6% | 83.9% | 85.5% | 82.7% | 62.3% | 99.3% | 92.3% | 85.6% | 83.6% | 95% | 89.1% | 86.4% | 83.6% | 89.8% | 131%
COc1cc(OC2CCN(C)CC2)ccc1Nc1ncc2c(n1)n(C1CCCC1)c(=O)n2C [AZ 3146] (100 nM) | 99.1% | 89.9% | 96.9% |  | 111% | 96.2% | 100% | 92.5% | 104% | 111% | 96.6% | 107% | 77.7% | 98.3% | 96.7% | 99.8% | 94.1% | 99.2% | 99.9% | 96.7% | 115% | 98.7% | 99.2% | 96.2% | 99.1% | 98.1% | 111% | 108% | 98.3% | 102% | 104% | 104% | 98.8% | 99.9% | 101% | 96.3% | 
CN(C)CCOc1ccc(/C(=C(/CCCl)c2ccccc2)c2ccccc2)cc1 [Toremifene] (100 nM) | 99.7% | 84.1% | 102% | 71.6% | 110% | 74.3% | 92.6% | 55.6% | 106% | 92.8% | 99.1% | 98.3% |  | 101% | 70.6% | 102% | 104% | 109% | 105% | 103% | 100% | 98.2% | 103% | 99.7% | 105% | 102% | 107% | 101% | 102% | 94.6% | 100% | 102% | 103% | 104% | 99.1% |  | 127%
Cc1ccc(NC(=O)c2ccc(CN3CCN(C)CC3)cc2)cc1Nc1nc(-c2cccnc2)cs1 [Masitinib] (100 nM) | 106% | 95.1% | 98.9% | 68.2% | 104% | 87.1% | 91.6% | 91.5% | 103% | 91% | 101% | 99.3% | 73.4% | 95.3% | 105% | 99.3% | 102% | 106% | 97.7% | 91.6% | 83.5% | 109% | 106% | 103% | 111% | 99% | 106% | 107% | 93.8% | 101% | 107% | 101% | 102% | 105% | 99.8% |  | 116%
COC(=O)c1ccc2c(c1)NC(=O)/C2=C(\Nc1ccc(N(C)C(=O)CN2CCN(C)CC2)cc1)c1ccccc1 [Nintedanib] (100 nM) |  | 102% | 100% | 102% | 109% | 83.3% | 98.9% | 92.7% | 101% | 101% | 95.1% | 98.1% | 93% | 102% | 106% | 103% | 103% | 106% | 98.7% | 93.4% | 103% | 95% | 95.8% | 94.9% | 105% | 98.3% | 109% | 108% | 114% | 98.7% | 102% | 96.8% | 101% | 100% | 92.2% | 108% | 82.3%
S=P(N1CC1)(N1CC1)N1CC1 [Thio-TEPA] (500 nM) | 88.8% | 102% | 97% |  | 113% | 92.6% | 100% | 105% | 102% | 108% | 97.2% | 107% | 85.2% | 94.3% | 101% | 101% | 101% | 95.6% | 96.1% | 106% | 108% | 102% | 98.7% | 95.4% | 98.8% | 110% | 116% | 102% | 89% | 103% | 94.8% | 95% | 97.5% | 104% | 101% |  | 69%
COc1cc(O)c2c(c1)/C=C/C[C@H](O)[C@H](O)C(=O)/C=C\C[C@H](C)OC2=O [(5Z)-7-Oxozeaenol] (100 nM) | 79.4% |  | 104% |  | 109% | 85.9% | 105% | 109% | 102% | 91.1% | 108% |  | 104% | 104% | 89.1% | 96.9% | 98.9% | 101% | 101% | 84.8% | 103% | 84.1% | 103% | 92.4% | 104% | 108% | 108% | 76.2% | 91.2% | 88.5% | 104% | 95.4% | 99% | 76.1% | 92.9% | 105% | 107%
